Source: patent US20260053171A1, “METHANOGEN INHIBITORS” (AGRIZERONZ LIMITED PARTNERSHIP, priority 2022, published 2026)

Tests used:
[1] = tested on: methane production in rumen fluid; assay: Rumen in vitro (RIV) assay, methane production from rumen fluid incubations; format: cell-based, cattle; settings: Bos taurus, read-out: RIV % methane reduction +/− SD
Summary of the method: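 Rumen fluid from two fistulated cattle diluted 12 ml in 48 ml buffer with ryegrass substrate, incubated in sealed bottles at 39° C for 24-48 h in duplicate. Inhibitors added in DMF (stocks 1000-fold above highest assay level); total gas, methane and H2 measured automatically; 30 μM BES positive control, no-inhibitor negative control.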

[2] = tested on: methane emissions from sheep; assay: Example 2: in vivo study on sheep methane emissions (respiration chambers, dosing in feed twice daily); settings: for CH4 Inhibition [%] Average Days 1-3: Average Days 1-3, dose mg/day: Compound 60 412, 69 311, 67 414, 64 344
Description: (§1) The trial for testing the effects of Compound 60, Compound 69, Compound 67 and Compound 64 on methane emissions from sheep over a 96-hour period in methane measurement chambers was approved by the Grasslands Animal Ethics Committee. Three sheep were used for each Compound 60 and Compound 69 treatment group and six sheep were used for each Compound 67 and Compound 64 treatment group. The animals received a general-purpose diet (GP) at 1.5× maintenance energy requirements throughout the trials consisting of 500 g hay, 100 g soybean meal, 290 g barley, 100 g molasses and 10 g mineral mix. During the time in the respiration chambers the animals had free access to water, with the feed offered twice a day at approximately 9:00 and 16:00 h in equal amounts. Feed refusals were weighed.
(§2) The animals were adapted to GP diet for 14 days prior to entering the methane measurement chambers. Rumen contents were sampled by stomach tubing before methane emissions were measured in the respiration chambers and the day after being released from the chambers to allow for the future examination of any effects on volatile fatty acids (VFAs). Rumen samples from stomach tubing were immediately subsampled for short chain fatty acid (SCFA) analysis (1.8 ml). The samples were centrifuged (20,000 g, 10 min, 4° C.). An aliquot of 0.9 ml of the supernatant was collected into 0.1 ml of internal standard (19.8 mM ethylbutyrate in 20% v/v phosphoric acid) for SCFA analysis and stored at −20° C. SCFA samples were thawed and centrifuged (20,000 g, 10 min, 4° C.) and 800 μl of the supernatant was collected into a crimp cap glass vial. SCFA were analysed by a HP 6890 gas chromatograph (Attwood et al., 1998).
After the 14-day acclimatisation period, methane emissions were measured in open circuit respiration chambers as described in Chapter 1 of the technical manual on respiration chamber design (http://www.globalresearchalliance.org/wp-content/uploads/2012/03/GRA-MAN-Facility-BestPract-2012-ch13.pdf). Dry matter intake (DMI, kg/d) was recorded during methane measurements from the weight difference of feed offered and refused. The first day in the chambers (24-hour period; Period 1) served as a control for each animal. For the next three days the sheep received Compound 60, Compound 69, Compound 67 and Compound 64 at 412, 311, 414 and 344 mg per day, respectively (72-hour period; Period 2).
Methane gas outputs for the 96-hour period (first 24 hours for background measurements (Period 1), followed by three days of dosing (Period 2)) in open circuit respiration chambers were determined and are summarised in Table 2.

[3] = tested on: methane emissions from cattle; assay: Example 3: in vivo cattle trial on methane emissions (respiration chambers, dosing in feed twice daily)
Description: as §1, with “various doses of” for “Compound 60, Compound 69, Compound 67 and”, “cattle” for “sheep”, “four 48-hour periods” for “a 96-hour period”, “Four cattle (Friesian dairy heifers, approximately 400 kg)” for “Three sheep”, “of two” for “Compound 60 and Compound 69 treatment group and six sheep were used for each Compound 67 and”, “groups.” for “group.”
as §2
After the 14-day acclimatisation period, methane emissions were measured in open circuit respiration chambers as described in Chapter 1 of the technical manual on respiration chamber design (http://www.globalresearchalliance.org/wp-content/uploads/2012/03/GRA-MAN-Facility-BestPract-012-ch13.pdf). Dry matter intake (DMI, kg/d) was recorded during methane measurements from the weight difference of feed offered and refused. Chamber measurements were made once a week for five weeks. The first period in the chambers (48-hour period; Period 1) served as a control for each animal. […]
Methane gas outputs for the four 48-hour treatment periods (Periods 2-5) in open circuit respiration chambers were determined and are summarised in Table 1. There were little or no feed refusals.

[4] = tested on: methane emissions from sheep; assay: Example 1: in vivo study on sheep methane emissions (respiration chambers, once-daily drench); settings: once-daily drenching, 121.3 mg/day, average of 3 sheep
Protocol: as §1, with “19” for “60, Compound 69, Compound 67 and Compound 64”, “96 hour” for “96-hour”, “Committee, and the use of the compounds in animals by the New Zealand Food Safety Authority, as required under ACVM legislation.” for “Committee.”, “19” for “60 and Compound 69 treatment group and six sheep were used for each Compound 67 and Compound 64”, “soy bean” for “soybean”
as §2, with “An aliquot of 0.9 ml of the supernatant was collected into 0.1 ml of internal standard (19.8 mM ethylbutyrate in 20% v/v phosphoric acid) for SCFA analysis and stored at −20° C. SCFA samples were thawed and centrifuged (20,000 g, 10 min, 4° C.) and 800 μl of the supernatant was collected into a crimp cap glass vial.” left out
After the 14-day acclimatisation period, methane emissions were measured in open circuit respiration chambers as described in Chapter 1 of the technical manual on respiration chamber design (http://www.globalresearchalliance.org/wp-content/uploads/2012/03/GRA-MAN-Facility-BestPract-2012-ch13.pdf). Dry matter intake (DMI, kg/d) was recorded during methane measurements from the weight difference of feed offered and refused. […]
Methane gas outputs for the 96-hour period (first 24 hours for background measurements (Period 1), followed by three days of dosing) in open circuit respiration chambers were determined and are summarised in Table 1.

female Swiss mice = assay: Toxicity testing in mice according to OECD 423; format: in vivo; settings: 300 mg/kg, single dose by oral gavage in corn oil, observed 14 days
Protocol: The potential toxicology of Compound 19 was tested according to OECD 423. Mice testing used two groups with three mice (female Swiss mice, non-pregnant), all at approximately 8-9 weeks of age. On the day of testing, food was withdrawn 1-2 hours prior to dosing. Following fasting, the animals were weighed and the test substances administered. Access to food was resumed 1-2 hours after administration of the compounds. The compounds were administered in a single dose by oral gavage in corn oil (maximum of 0.3 ml per dose) at the selected dose and the time recorded. The mice were observed individually after dosing at least once during the first 30 minutes, periodically over the first 24 hours, with special attention given to the first 4 hours, and then daily thereafter for a total of 14 days. The mice were weighed every seven days (0, 7 and 14 days). All observations were systematically recorded for each individual animal. These observations included (if present): tremors, convulsions, salivation, diarrhoea, lethargy, sleep, coma, and changes in fur, skin, eyes, mucus membranes, respiration, motor activity and behaviour.

[5] = Day 1, dose mg/day: Compound 60 412, 69 311, 67 414, 64 344
[6] = Day 2, dose mg/day: Compound 60 412, 69 311, 67 414, 64 344
[7] = Day 3, dose mg/day: Compound 60 412, 69 311, 67 414, 64 344

| Structure (SMILES) | inhibition at 2 µM [1] | inhibition at 10 µM [1] | inhibition at 50 µM [1] | CH4 Inhibition [%] Average Days 1-3 [2] | CH4 Inhibition [%] [2, 5] | CH4 Inhibition [%] [2, 6] | CH4 Inhibition [%] [2, 7] | other results |
| --- | --- | --- | --- | --- | --- | --- | --- | --- |
| O=C(O)c1cccc(N2N=C(c3ccc(Cl)cc3)CC2c2ccc3nccnc3c2)c1 (stereo not shown) [Compound 60, 3-(3-(4-Chlorophenyl)-5-(quinoxalin-6-yl)-4,5-dihydro-1H-pyrazol-1-yl)benzoic acid] | 16.1 ± 0.5% | 90.9 ± 1.2% | 97.7 ± 0.6% | 26.2% | 26.3% | 20.9% | 31.2% | – |
| CC(C)Oc1ccc(-c2ccc(C3=NN(C(=O)CCC(=O)O)C(c4ccc5nccnc5c4)C3)cc2)cc1 (stereo not shown) [Compound 64, 4-(3-(4′-Isopropoxy-[1,1′-biphenyl]-4-yl)-5-(quinoxalin-6-yl)-4,5-dihydro-1H-pyrazol-1-yl)-4-oxobutanoic acid] | 81% | 97.5% | – | 85.8% | 81.9% | 85.6% | 89.8% | CH4 Inhibition [%] ([3]; High dose group, Period 2, 150 mg/day): 1.9 ± 5.2%; CH4 Inhibition [%] ([3]; High dose group, Period 3, 450 mg/day): 15.6 ± 11.7%; CH4 Inhibition [%] ([3]; High dose group, Period 4, 450 mg/day): 0.5 ± 5.8%; CH4 Inhibition [%] ([3]; High dose group, Period 5, 450 mg/day): 5.6 ± 3.0%; CH4 Inhibition [%] ([3]; Low dose group, Period 2, 50 mg/day): −4.7 ± 2.9%; CH4 Inhibition [%] ([3]; Low dose group, Period 3, 300 mg/day): 20.2 ± 9.8%; CH4 Inhibition [%] ([3]; Low dose group, Period 4, 300 mg/day): 2.5 ± 4.6%; CH4 Inhibition [%] ([3]; Low dose group, Period 5, 300 mg/day): −1.8 ± 4.0% |
| CC(C)S(=O)(=O)NC(=O)CCC(=O)N1N=C(c2ccc(-c3ccccc3)cc2)CC1c1ccc2nccnc2c1 (stereo not shown) [Compound 69, 4-(3-([1,1′-Biphenyl]-4-yl)-5-(quinoxalin-6-yl)-4,5-dihydro-1H-pyrazol-1-yl)-N-(isopropylsulfonyl)-4-oxobutanamide] | 37.6 ± 5.6% | 92.8 ± 1.8% | – | 23.5% | 11.9% | 26.3% | 32.4% | – |
| O=C(O)CCC(=O)N1N=C(c2ccc(-c3ccc(Cl)cc3)cc2)CC1c1ccc2nccnc2c1 (stereo not shown) [Compound 19, 4-(3-(4′-Chloro-[1,1′-biphenyl]-4-yl)-5-(quinoxalin-6-yl)-4,5-dihydro-1H-pyrazol-1-yl)-4-oxobutanoic acid] | 5.3 ± 0.6% | 83.7 ± 0.6% | 91.1 ± 0.3% | – | – | – | – | CH4 Inhibition [%] ([4]; Day 1): −6.5%; CH4 Inhibition [%] ([4]; Day 2): 8.9%; CH4 Inhibition [%] ([4]; Day 3): 11.4%; adverse effects (OECD 423) (female Swiss mice): No adverse effects |
| O=C(O)CCC(=O)N1N=C(c2ccc(-c3ccc(OC(F)(F)F)c(F)c3)cc2)CC1c1ccc2nccnc2c1 (stereo not shown) [Compound 67, 4-(3-(3′-Fluoro-4′-(trifluoromethoxy)-[1,1′-biphenyl]-4-yl)-5-(quinoxalin-6-yl)-4,5-dihydro-1H-pyrazol-1-yl)-4-oxobutanoic acid] | 51.8 ± 8.4% | 92.4 ± 1.5% | – | 36.5% | 24.2% | 36.7% | 48.6% | – |
| O=C(CCC(=O)N1N=C(c2cccc(-c3ccccc3)c2)CC1c1ccc2nccnc2c1)NS(=O)(=O)c1ccccc1 (stereo not shown) [Compound 122, 4-(3-([1,1′-Biphenyl]-3-yl)-5-(quinoxalin-6-yl)-4,5-dihydro-1H-pyrazol-1-yl)-4-oxo-N-(phenylsulfonyl) butanamide] | 7.4 ± 4.7% | 78.9 ± 2.3% | – | – | – | – | – | – |
| O=C(O)CCC(=O)N1N=C(c2ccc3ccccc3c2)CC1c1ccc2nccnc2c1 (stereo not shown) [Compound 31, 4-(3-(Naphthalen-2-yl)-5-(quinoxalin-6-yl)-4,5-dihydro-1H-pyrazol-1-yl)-4-oxobutanoic acid] | – | – | 56.6 ± 6.9% | – | – | – | – | – |
